Entries after “also recorded” stand apart in the source; their conditions may differ.
System: patients with IgA nephropathy
Test: Placebo-controlled clinical trial in IgA nephropathy: GFRest, UP/C and Composite Response/Outcome Scores
Type: in vivo, human
Description: In a multicenter, placebo-controlled, double blind clinical trial, we evaluated the efficacy of a 24-month stable daily dose (4 grams per day) of a highly purified preparation of O3 (especially icosapent & doconexent).
We performed secondary analyses based on clinical response scores derived from changes in the level of proteinuria (defined by urine protein to creatinine ratios in first morning urine specimens) and GFRest. Composite Response Score, which represented changes in proteinuria and GFR scores were also calculated.
This was a placebo-controlled, prospective clinical trial. After fulfilling all entry criteria, patients were assigned to one of three treatment arms, as described in our paper discussing the primary analysis of this study.
Randomization of patients was stratified by hypertensive status and blocked randomization was used within each stratum.
Estimation of GFR and level of proteinuria. The glomerular filtration rate (GFR) was estimated at 6 monthly intervals in each patient using standard age-appropriate formulas. […] Serum creatinine measurements were measured by HPLC. […]
Statistical analysis: After it was noted that there was wide variation in the plasma phospholipid fatty acid profiles in patients receiving icosapent/doconexent (FIG. 1), a series of secondary analyses was conducted to determine the cause for this variability and to evaluate if the fatty acid profiles affected patient outcome. Clinical response scores were determined for each patient based on changes in the estimated GFR (−5 to +5) and urine protein/creatinine ratios (−5 to +5) at each 6 month visit up to 36 months. Composite response scores (−10 to +10) at each time interval were then determined based on the patients' combined GFR and UP/C Response Scores—with equal weight given to each (Table 1). Clinical outcome scores were then calculated based on the mean of the Composite Response Scores at 18 and 24 months. The dosage of the study drugs given to each patient was calculated as g/kg body weight and g/m^2 BSA. […]

## C[C@]12C=CC(=O)C=C1CC[C@@H]1[C@@H]2C(=O)C[C@@]2(C)[C@H]1CC[C@]2(O)C(=O)CO [prednisone]
6-month intervals, 0 to 36 months, FIG. 2
  Composite Response Scores, treatment arm as a whole: significantly better; also recorded: better response
24-month treatment, O3 4 grams per day, prednisone alternate-day
  Primary analysis: decrease of GFR to less than 60% of baseline: did not show a statistically significant benefit
Secondary analyses
  Secondary analysis: efficacy by clinical response scores (proteinuria and GFRest): effective

— US20060058384A1, “Treatment of IGA nephropathy with omega-3 fatty acids” (PRONOVA BIOCARE, A.S., priority 2004, published 2006)
